For assay [1], the system named is HOB cells. The assay is described as follows: Cell adhesion assay (attachment and spreading) on FN or TG-FN matrix with RGD or RAD peptide. The class given is cell-based, human. Particulars: for effect on the compensatory effects of TG-FN on attachment and spreading in the presence of RGD: HOB cells on TG-FN, peptide 100-400 μg/ml, RGD 150 μg/ml; for effect of PKCα inhibitors on the compensatory effect of P1 peptide on RGD-induced loss of cell adhesion: Go6976 5 μM, GK21 8 μM, P1 100 ug/ml, FN. How it is done:
The cell adhesion assay was carried out as previously described (Wang et al., 2010). Briefly, 96-well plastic tissue culture plates were coated with 5 μg/ml FN in 50 mM Tris-HCl, pH 7.4 at 4° C. overnight, after washing three times with 100 μl of 50 mM Tris-HCl, pH7.4, gplTG (20 μg/ml) in 2 mM EDTA in PBS, pH 7.4 was added to the wells for 1 h at 37° C. and the wells were washed three times with 50 mM Tris-HCl, pH7.4. Serum-starved (for 16 h) HOB cells with different treatments as introduced below in serum-free medium were detached by trypsinization and then treated with trypsin inhibitor. Cells were washed three times with serum free medium and seeded onto either FN or TG-FN matrix for 20-40 min. Peptides P1 or scrambled P1 (P1s), were added at concentrations between 100 μg/ml and 300 μg/ml. […] Attached cells were washed once with PBS, pH 7.4 and then fixed with 3.7% paraformaldehyde, further permeabilised with 0.1% (v/v) Triton® X-100 detergent in PBS, and co-stained with May-Grunwald and Giemsa stains as described previously (Jones et al., 1997). Images of stained cells from non-overlapping fields of view were photographed at 20× magnification and analyzed using the imaging analysis program Scion Image (National Institute of Health). Cell attachment and spreading were quantified, and the number of cells per image was assessed as described previously (Telci et al., 2008). Cell attachment on FN without peptide was considered as the control value for all the experiments unless stated otherwise. The mean number of attached cells form three wells was calculated and that of the control was considered as 100%. The mean number of attached cells (cell attachment) for each sample was then expressed as the percentage of cell attachment on FN. The mean percentage of attached cells that are spread (cell spreading) for each sample was determined separately, and the mean percentage of spread cells on FN control was expressed as 100%. The mean percentage of spread cells for each sample was then normalised against that of FN control Cell attachment on FN without the RGD peptide was considered as the control value for most of the experiments unless stated otherwise The mean number of attached cells from three wells was calculated and that of the control was considered as 100%. The mean number of attached cells (cell attachment) for each sample was then expressed as the percentage of cell attachment on FN. The mean percentage of attached cells that are spread (cell spreading) for each sample was determined separately, and the mean percentage of spread cells on the FN control was expressed as 100%. The mean percentage of spread cells for each sample was then normalised against that of FN control Cell pre-treatments included: PKCα inhibitor Go6976 (5 μM) or GK21 peptide (8 μM) for 1 h in serum-free medium prior to cell detachment; heparinase (15 mU/ml) or chondroitinase (15 mU/ml) to cells in suspension in serum free medium for 1 h. For the detection of the signalling molecules via Western blotting, the cell adhesion assay was performed in 60 mm Petri dishes and cells were collected into cell lysis buffer (Santa Cruz, UK) as described previously and pre-cleared by centrifugation at 300×g for 10 min. Western blotting was performed with specific anti-p-397 FAK or p-ERK1/2 antibodies. Membranes were stripped (Telci et al., 2008) and total FAK and ERK1/2 detected using anti-FAK and anti-ERK1/2 antibodies as listed in Table 2, while α-tubulin was used as an equal loading standard (Wang et al., 2011).
Cell adhesion and spreading assays were performed as described above in Example 1 method ‘Cell adhesion assay’

The nature of assay [2]: Binding of TG2 to heparin SEPHAROSE, elution with NaCl gradient. Particulars: for NaCl concentration of optimum elution / major peak from heparin SEPHAROSE: lysate of HEK293T/17 cells, 0-1M NaCl gradient. How it is done: HEK cells, transiently transfected with wild-type and mutant TG2 were washed twice with ice cold PBS, pH 7.4 and lysed by the addition of 150 μl of 20 mM Tris-HCl pH 7.4, 10 mM EGTA, 2 mM EDTA, 1 mM NaF and 1 mM Na3VO4. After clarification by centrifugation, lysates were mixed with 450 μl of 50 mM Tris-HCl, 1 mM EDTA, 1 mM DTT, pH 7.5 and applied to a 5 ml Heparin SEPHAROSE® column (GE Healthcare) equilibrated in 50 mM Tris-HCl, 1 mM EDTA, 1 mM DTT pH 7.5 (buffer) at a flow rate of 1 ml/min. For the analysis of GTP-bound TG2 (closed conformation), lysates were pre-incubated for 1 h at room temperature with 0.5 mM GTP in 50 mM Tris-HCl, 2 mM MgCl2, 1 mM EDTA, 1 mM DTT pH 7.5. For the analysis of inhibitor-reacted TG2 (open conformation), lysates were incubated with 0.5 mM of irreversible inhibitor R281 (Griffin et al., 2008) and 10 mM CaCl2. The column was washed with 25 ml of buffer and protein was eluted with a linear gradient of increasing NaCl concentration (0-1M) in buffer. Fractions were assayed for TG2 activity and analysed for the presence of TG2 antigen by SDS-PAGE and Western blotting using CUB7402.

As to “GRDCSRRSS (listed as Homo sapiens) [fragment peptide derived from P1]”, in assay [1], the “effect on the compensatory effects of TG-FN on attachment and spreading in the presence of RGD” value is “able to inhibit the compensatory effects of TG-FN on attachment and spreading, in a dose-dependent manner”. As for “GENPIYKSAVTTVVNPIYEGKRQIKIWFQNRRMKWKK (listed as Homo sapiens) [GK21, reference compound]”, the “effect of PKCα inhibitors on the compensatory effect of P1 peptide on RGD-induced loss of cell adhesion” value in assay [1] was “inhibition of the compensatory effect”. Turning to `Cn1c2ccccc2c2c3c(c4c5ccccc5n(CCC#N)c4c21)CNC3=O` [Go6976, reference compound], in assay [1], the “effect of PKCα inhibitors on the compensatory effect of P1 peptide on RGD-induced loss of cell adhesion” value is “inhibition of the compensatory effect”. Consider “NPKFLKNA (listed as Homo sapiens) [fragment peptide derived from P1]”, for which the “effect on the compensatory effects of TG-FN on attachment and spreading in the presence of RGD” value in assay [1] is on record as “could not abrogate”. Moreover, in assay [1] (HOB cells, tested 100-400 μg/ml), the “concentration at which peptide was inhibitory to cell attachment and spreading” value was “above 200 μg/ml”.

B1: TG2: wild type human tissue transglutaminase expressed in transfected cells (protein)
chain: AEELVLERCDLELETNGRDHHTADLCREKLVVRRGQPFWLTLHFEGRNYEASVDSLTFSVVTGPAPSQEAGTKARFPLRDAVEEGDWTATVVDQQDCTLSLQLTTPANAPIGLYRLSLEASTGYQGSSFVLGHFILLFNAWCPADAVYLDSEEERQEYVLTQQGFIYQGSAKFIKNIPWNFGQFEDGILDICLILLDVNPKFLKNAGRDCSRRSSPVYVGRVVSGMVNCNDDQGVLLGRWDNNYGDGVSPMSWIGSVDILRRWKNHGCQRVKYGQCWVFAAVACTVLRCLGIPTRVVTNYNSAHDQNSNLLIEYFRNEFGEIQGDKSEMIWNFHCWVESWMTRPDLQPGYEGWQALDPTPQEKSEGTYCCGPVPVRAIKEGDLSTKYDAPFVFAEVNADVVDWIQQDDGSVHKSINRSLIVGLKISTKSVGRDEREDITHTYKYPEGSSEEREAFTRANHLNKLAEKEETGMAMRIRVGQSMNMGSDFDVFAHITNNTAEEYVCRLLLCARTVSYNGILGPECGTKYLLNLNLEPFSEKSVPLCILYEKYRDCLTESNLIKVRALLVEPVINSYLLAERDLYLENPEIKIRILGEPKQKRKLVAEVSLQNPLPVALEGCTFTVEGAGLTEEQKTVEIPDPVEAGEEVKVRMDLLPLHMGLHKLVVNFESDKLKAVKGFRNVIIGPA
Turning to B1, the “NaCl concentration of major peak from heparin SEPHAROSE in the presence of GTP” value in assay [2] (0.5 mM GTP, compact conformation) is “about 330 mM NaCl”. In addition, the “NaCl concentration of major peak from heparin SEPHAROSE after reaction with inhibitor R281” value in assay [2] (0.5 mM R281, extended conformation) came to 250 mM NaCl. For the same molecule, the “NaCl concentration of optimum elution / major peak from heparin SEPHAROSE” value in assay [2] came out at 330 mM NaCl.

B2: C277S: TG2 active site mutant, extended conformation (protein, UniProt P21980 2-687, looked up, variant C277S)
Protein-glutamine …: AEELVLERCDLELETNGRDHHTADLCREKLVVRRGQPFWLTLHFEGRNYEASVDSLTFSVVTGPAPSQEAGTKARFPLRDAVEEGDWTATVVDQQDCTLSLQLTTPANAPIGLYRLSLEASTGYQGSSFVLGHFILLFNAWCPADAVYLDSEEERQEYVLTQQGFIYQGSAKFIKNIPWNFGQFEDGILDICLILLDVNPKFLKNAGRDCSRRSSPVYVGRVVSGMVNCNDDQGVLLGRWDNNYGDGVSPMSWIGSVDILRRWKNHGCQRVKYGQSWVFAAVACTVLRCLGIPTRVVTNYNSAHDQNSNLLIEYFRNEFGEIQGDKSEMIWNFHCWVESWMTRPDLQPGYEGWQALDPTPQEKSEGTYCCGPVPVRAIKEGDLSTKYDAPFVFAEVNADVVDWIQQDDGSVHKSINRSLIVGLKISTKSVGRDEREDITHTYKYPEGSSEEREAFTRANHLNKLAEKEETGMAMRIRVGQSMNMGSDFDVFAHITNNTAEEYVCRLLLCARTVSYNGILGPECGTKYLLNLNLEPFSEKSVPLCILYEKYRDCLTESNLIKVRALLVEPVINSYLLAERDLYLENPEIKIRILGEPKQKRKLVAEVSLQNPLPVALEGCTFTVEGAGLTEEQKTVEIPDPVEAGEEVKVRMDLLPLHMGLHKLVVNFESDKLKAVKGFRNVIIGPA
Consider B2, for which, in assay [2], the “NaCl concentration of optimum elution / major peak from heparin SEPHAROSE” value amounted to 250 mM NaCl.

(Values after patent US9657110B2, “Polypeptides and use thereof” (ASTON UNIVERSITY, priority 2011, dated 2017).)
